Data as given in patent US20100113535A1, “TREATMENT OF PRESBYOPIA WITH ALPHA- PICOLINIC ACID AND ITS ANALOGS” (The Department of Veterans Affairs Technology Transfer …, priority 2005, published 2010).
pIC50: −log10 of the molar value. Like-named read-outs stand apart in the source and are kept apart here.

Assays:
[1] = test system: porcine lens epithelial (PLE) cells; assay: Toxicity of PA and its analogs to PLE cell growth (cell counts, 50% inhibitory concentration); assay type: cell-based; details: for IC50 / pIC50: Sus scrofa, 120 hours (five days) with substance, treated cell count equal to 50% of control; for IC50: from FIG. 5, read-out: IC50 μg/mL; for pIC50: from FIG. 5, read-out: IC50 mmol/L
Description: FIG. 5. Toxicity of Picolinic Acid and its analogs in Pig Lens Epithelial Cells. Pig lens epithelial cells were plated in quadruplicate in 24 well trays at 5000 cells/well using minimal essential media plus 10% fetal calf serum (10% FCS MEM) with antibiotics. At 24 hours after plating, substances were added with a media change, at appropriate concentrations. Cells were allowed to grow for an additional 120 hours in the presence of the various substances. Cells were then counted, four dishes, in duplicate, and the cell counts were expressed as a percentage of the control cell counts.
Growth curve data were obtained from cells plated without any agents. Cell counts were performed daily on a total of eight wells per point, by combining four wells per count and performing counts in duplicate.
The toxicity of PA and its analogs to the PLE cells was tested according to the method of Senderoff et al. (66) PLE cells were plated in 24 well trays at 5000 cells per well in 1 mL of tissue culture medium (see above). The medium was changed at 24 hours, and new medium containing the analogs was added. Five days after addition of substances, cell counts were performed using a total of four wells per point, by combining two wells per count, and performing counts in duplicate. Results were expressed as a percentage of the untreated or control cell counts.

[2] = test system: WI-38 cells; details: 0.5 mM fusaric acid, cited from earlier work
[3] = test system: PLE cells; assay: Induction of apoptosis in PLE cells (DNA fragmentation detection kit); assay type: cell-based, porcine; details: for effect on monolayer growth, floating cells and DNA laddering staining: 48 hours, 3 mM picolinic acid, 0.3 mM fusaric acid; for state of cells at 72 hours: 3 mmol/L PA, 0.3 mmol/L FA, results not shown; for induction of apoptosis in PLE cells: discussion statement
Description: FIG. 6. Induction of Apoptosis in PLE cells. PLE cells were grown in 35 mm dishes in tissue culture. Analogs were added to media 24 hours after cells were plated. After 48 hours of incubation, floating or supernatant cells were spun onto slides and stained using the DNA fragmentation kit. The conditions are as follows: A. Control monolayer; B. Control stained supernatant; C. 3 mM picolinic acid monolayer; D. 3 mM picolinic acid stained supernatant; E. 0.3 mM fusaric acid monolayer; F. 0.3 mM fusaric acid stained supernatant.
The ability of PA and its analogs to induce apoptosis was detected with the DNA fragmentation detection kit (Oncogene Research Products, Boston, Mass.). One of the molecular effects of apoptosis is the formation of oligonucleosomal DNA fragments by DNA laddering (67). The kit includes a Klenow DNA polymerase that labels 3′-OH terminals of DNA, which are formed in the laddering process. Incorporated biotinylated nucleotides are then detected with a chromogenic labeling system of streptavidin-horseradish peroxidase diaminobenzidine. Cells were plated in 35-mm wells at a density of 50,000 cells per well. 24 hours after plating, analogs were added concurrently with fresh media. Pictures were taken after 48 hours of exposure to the analogs. Floating cells were washed and placed in Saccomanno's fixative (Shandon, Pittsburgh, Pa.), centrifuged onto Superfrost slides (Fisher Scientific, Pittsburgh, Pa.) with a CytoSpin centrifuge (Shandon, Pittsburgh, Pa.), and stained according to the protocol given.
To test for the role of apoptosis in the toxicity of PA and its analogs, the PLE cells were exposed to 0.3 mmol/L FA and 3 mmol/L of PA.

[4] = test system: corneal endothelium; assay: Toxicity in corneal endothelium (Janus Green staining of pig corneas); details: for Janus Green staining relative to untreated control: 48 hours, corneal endothelium in 2% FCS M199; for Avg Abs650/SD (Janus Green stain eluted from trephine cut-outs of treated corneas): 48 hr in 2% FCS M-199, PA 3 mM, FA 0.3 mM, absorbance at 650 nm
Description: Testing of Toxicity in Corneal endothelium: To test for the effects of PA and FA on corneal endothelium, fresh corneas from pig eyes were aseptically dissected out, with a 2 mm scleral ring and placed in 2% FCS M-199 medium with antibiotics, as M-199 medium has previously been used for corneal experiments (84).
Times of incubation and concentrations which were used in the apoptosis experiment were implemented, i.e. 48 hours at 3 mM PA and 0.3 mM FA. Serum concentration of 2% was employed to maintain the corneal cells without undo stimulation. Corneas were rinsed with Hanks Balanced Salt Solution (HBSS) and stained for 90 seconds with 0.2 mL 1% Janus Green (85) in HBSS as a test for viability. The corneas were again rinsed. Negative controls were set up by placing corneas in 100% ethanol for 5 minutes prior to addition of Janus Green, to give staining in 100% “damaged” corneas. Using an 8 mm trephine, the central section of the cornea was punched out, and the dye was eluted with 2 ml 100% ethanol and the absorbance was measured at 650 nm. The Janus Green staining experiment of corneas was repeated twice. Duplicate samples were used for drug conditions and triplicate samples for controls. Janus green staining was also carried out on fresh cornea, for comparison purposes.

O=C(O)c1cccc(C(=O)O)n1 [Dipicolinic acid]
IC50 [1]: 185 µg/mL | pIC50 [1]: 2.96 | times less toxic than PA ([1]; from IC50 data): 2.5 times

CCCCc1ccc(C(=O)O)nc1 [Fusaric acid, fusaric acid]
viability of confluent WI-38 cells ([2]; confluent cells, 48 hour incubation): no significant drop in viability | decrease in viability of logarithmically growing WI-38 cells ([2]; logarithmically growing cells, by 30 hours): 76% | effect on monolayer growth, floating cells and DNA laddering staining [3]: many floating cells, with strong nuclear staining | effect on monolayer growth, floating cells and DNA laddering staining ([3]; listed as FA): significant cell death by the apoptotic pathway | state of cells at 72 hours [3]: no living cells were seen | induction of apoptosis in PLE cells [3]: rapidly induced apoptosis | IC50 [1]: 5.6 µg/mL | pIC50 [1]: 4.51 | times more toxic than PA (on concentration basis) ([1]; from IC50 data): about 15 times | Janus Green staining relative to untreated control [4]: stained less than the untreated control | Avg Abs650/SD (Janus Green stain eluted from trephine cut-outs of treated corneas) [4]: 0.287 ± 0.011

O=C(O)c1cccnc1 [Nicotinic acid, nicotinic acid]
IC50 [1]: 539 µg/mL | pIC50 [1]: 2.36

O=C(O)c1ccccn1 [Picolinic acid]
effect on monolayer growth, floating cells and DNA laddering staining [3]: inhibits growth of the monolayer with few floating cells | effect on monolayer growth, floating cells and DNA laddering staining ([3]; listed as PA): inhibition of cell growth but little cell death | state of cells at 72 hours [3]: many floating cells | state of cells at 72 hours ([3]; listed as PA): very few cells were still attached | induction of apoptosis in PLE cells [3]: rapidly induced apoptosis | IC50 [1]: 55.3 µg/mL | pIC50 [1]: 3.35 | Janus Green staining relative to untreated control [4]: stained less than the untreated control | Avg Abs650/SD (Janus Green stain eluted from trephine cut-outs of treated corneas) [4]: 0.321 ± 0.041
